# From patent US10336691B2, “Pesticidally active oxime and hydrazone derivatives” (Syngenta Participations AG, priority 2015, dated 2019)
# Assays:
# Spodoptera littoralis = Spodoptera littoralis (Egyptian cotton leaf worm) cotton leaf disc spray test, L1 larvae; type: in vivo; conditions: foliar, 72 h, application rate of 200 ppm, 3 days after infestation, in comparison to untreated samples, read-out: control (at least one of mortality, anti-feedant effect, and growth inhibition)
# Method: Spodoptera littoralis (Egyptian Cotton Leaf Worm)
# Cotton leaf discs were placed on agar in 24-well microtiter plates and sprayed with aqueous test solutions prepared from 10,000 ppm DMSO stock solutions. After drying, the leaf discs were infested with five L1 larvae. The samples were assessed for mortality, anti-feedant effect, and growth inhibition in comparison to untreated samples 3 days after infestation. Control of Spodoptera littoralis by a test sample is when at least one of mortality, anti-feedant effect, and growth inhibition is higher than the untreated sample.
# Plutella xylostella = Plutella xylostella (diamond back moth) artificial diet test, L2 larvae; type: in vivo; conditions: 120 h, application rate of 200 ppm, 5 days after infestation, in comparison to untreated samples, read-out: effect in at least one of the two categories (mortality or growth inhibition)
# Method: Plutella xylostella (Diamond Back Moth)
# (§1) 24-well microtiter plates with artificial diet were treated with aqueous test solutions prepared from 10,000 ppm DMSO stock solutions by pipetting. After drying, the plates were infested with L2 larvae (10 to 15 per well). The samples were assessed for mortality and growth inhibition in comparison to untreated samples 5 days after infestation.
# Diabrotica balteata = Diabrotica balteata (corn root worm) maize sprout spray test, L2 larvae; type: in vivo; conditions: 96 h, application rate of 200 ppm, 4 days after infestation, in comparison to untreated samples, read-out: effect in at least one of the two categories (mortality or growth inhibition)
# Method: Diabrotica balteata (Corn Root Worm)
# as §1, with “Maize sprouts, placed on an agar layer in 24-well” for “24-well”, “plates” for “plates with artificial diet”, “spraying.” for “pipetting.”, “(6” for “(10”, “10” for “15”, “4” for “5”
Compound,melting point,mortality at 200 ppm (Spodoptera littoralis),percent effect (mortality or growth inhibition) at 200 ppm (Plutella xylostella),percent effect (mortality or growth inhibition) at 200 ppm (Diabrotica balteata)
C/C(=N\Nc1ccc(/C=N/NC(=O)Nc2c(C)cccc2C)cc1)c1ccccc1OC(F)(F)F,215 to 224 °C,,,
"C/C(=N\Nc1ccc(/C=N/NC(=S)Nc2ccccc2C(C)C)cc1)c1ccc(C(F)(F)F)cc1 [Compound 20, 1-(2-isopropylphenyl)-3-[(E)-[4-[(2E)-2-[1-[4-(trifluoromethyl)phenyl]ethylidene] hydrazino]phenyl]methyleneamino] thiourea]",,≥ 80%,≥ 80%,≥ 80%
"C/C(=N\Nc1ccc(/C=N/NC(=O)Nc2c(C)cccc2C)cc1)c1ccc(C(F)(F)F)cc1 [Compound 21, 1-(2,6-dimethylphenyl)-3-[(E)-[4-[(2E)-2-[1-[4-(trifluoromethyl)phenyl]ethylidene] hydrazino]phenyl]methyleneamino] urea]",,≥ 80%,≥ 80%,≥ 80%
"C/C(=N\Nc1ccc(/C=N/NC(=S)Nc2c(C)cccc2C)cc1)c1ccc(C(F)(F)F)cc1 [Compound 22, 1-(2,6-dimethylphenyl)-3-[(E)-[4-[(2E)-2-[1-[4-(trifluoromethyl)phenyl]ethylidene] hydrazino]phenyl]methyleneamino] thiourea]",,≥ 80%,≥ 80%,≥ 80%
"CC/C(=N\Nc1ccc(/C=N/NC(=S)Nc2ccccc2C(C)C)cc1)c1ccc(C(F)(F)F)cc1 [Compound 26, 1-(2-isopropylphenyl)-3-[(E)-[4-[(2E)-2-[1-[4-(trifluoromethyl)phenyl]propylidene] hydrazino]phenyl]methyleneamino] thiourea]",,≥ 80%,≥ 80%,≥ 80%
"CC/C(=N\Nc1ccc(/C=N/NC(=O)Nc2c(C)cccc2C)cc1)c1ccc(C(F)(F)F)cc1 [Compound 27, 1-(2,6-dimethylphenyl)-3-[(E)-[4-[(2E)-2-[1-[4-(trifluoromethyl)phenyl]propylidene] hydrazino]phenyl]methyleneamino] urea]",,≥ 80%,≥ 80%,≥ 80%
"CC/C(=N\Nc1ccc(/C=N/NC(=S)Nc2c(C)cccc2C)cc1)c1ccc(C(F)(F)F)cc1 [Compound 28, 1-(2,6-dimethylphenyl)-3-[(E)-[4-[(2E)-2-[1-[4-(trifluoromethyl)phenyl]propylidene] hydrazino]phenyl]methyleneamino] thiourea]",,≥ 80%,≥ 80%,≥ 80%
